Experimental data reported in US20100119530A1, “Regulation of TLR Signaling by Complement” (priority 2007, published 2010).

How the values were obtained:
C3a receptor (C3aR) = target: T1, C3a receptor (C3aR) (Mus musculus, UniProt O09047); assay: LPS-induced plasma IL-6 in DAF−/− mice treated with C3a receptor antagonist; format: in vivo; details: 30 mg/kg i.p. 30 minutes before LPS
T1 construct: Effect of a C3a receptor antagonist (C3aRa) and a C5a receptor antagonist (C5aRa) on LPS-induced plasma IL-6 levels in DAF^−/− mice; from tissue; host or cells: living C57BL/6 DAF-/- mice (whole animal)
T1 sequence (O09047 1-477): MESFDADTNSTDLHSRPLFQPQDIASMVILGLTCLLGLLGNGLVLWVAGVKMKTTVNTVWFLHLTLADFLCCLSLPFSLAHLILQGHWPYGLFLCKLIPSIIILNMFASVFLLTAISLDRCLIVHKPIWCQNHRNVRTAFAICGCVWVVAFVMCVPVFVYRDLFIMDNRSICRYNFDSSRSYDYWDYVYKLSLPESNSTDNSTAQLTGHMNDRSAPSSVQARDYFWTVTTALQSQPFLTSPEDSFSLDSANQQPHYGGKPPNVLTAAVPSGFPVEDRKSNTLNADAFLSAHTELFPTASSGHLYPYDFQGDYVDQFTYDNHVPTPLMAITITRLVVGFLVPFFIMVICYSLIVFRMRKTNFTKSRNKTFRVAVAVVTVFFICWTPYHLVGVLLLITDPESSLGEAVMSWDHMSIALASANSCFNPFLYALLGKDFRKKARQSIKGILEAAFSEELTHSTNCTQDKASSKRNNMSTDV
Method: (§1) Mice were injected with the following TLR ligands: LPS (20 mg/kg in PBS, i.p.), zymosan (1 g/kg in 0.9% saline, i.p.), CpG (20 mg/kg in PBS, i.p.). In some experiments, mice were also treated with CVF (15 U/mouse in saline, i.p.), SB290157 (30 mg/kg in 20% polyethylene glycol 400 in saline, i.p.), AcPhe (50 μg/mouse in PBS, i.p.). EDTA (20 mM) anti-coagulated blood samples were collected from the tail vein or vena cava. Plasma was prepared by centrifugation at 1000×g for 15 min at 4° C. and stored as small aliquots at −80° C.

C5a receptor (C5aR) = target: T2, C5a receptor (C5aR) (Mus musculus, UniProt P30993); assay: LPS-induced plasma IL-6 in DAF−/− mice treated with C5a receptor antagonist; format: in vivo; details: 50 μg/mouse i.p. 30 minutes before LPS
T2 construct: from tissue; host or cells: living mice (A4: C57BL/6 DAF-/-; A12: wild-type, with C5aR-/- mice as control)
T2 sequence (P30993 1-351): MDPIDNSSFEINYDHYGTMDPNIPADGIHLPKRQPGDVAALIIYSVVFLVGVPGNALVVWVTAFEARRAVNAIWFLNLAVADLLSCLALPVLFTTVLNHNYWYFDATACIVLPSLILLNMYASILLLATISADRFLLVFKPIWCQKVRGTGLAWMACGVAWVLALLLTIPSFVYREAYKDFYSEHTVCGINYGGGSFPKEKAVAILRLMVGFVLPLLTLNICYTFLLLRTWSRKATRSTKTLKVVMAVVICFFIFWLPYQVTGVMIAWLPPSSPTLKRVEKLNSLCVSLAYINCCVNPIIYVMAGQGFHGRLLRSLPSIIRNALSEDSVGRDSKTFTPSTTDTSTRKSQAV
Method: as §1

TLR4 signaling = assay: Plasma cytokine ELISA in mice after LPS, CVF or LPS/CVF treatment; format: in vivo; details: 3 hours; for Reduction of LPS-induced IL-12p40 by CVF treatment: LPS/CVF vs LPS
Method: as §1

TLR2/6 signaling = assay: Plasma cytokine ELISA in mice after zymosan or zymosan/CVF treatment; format: in vivo; details: wild-type mice co-treated with zymosan and CVF, 3 hours
Method: as §1

TLR9 = assay: Plasma cytokine ELISA in mice after CpG, CVF or CpG/CVF treatment; format: in vivo; details: wild-type mice, CVF co-treatment with CpG
Method: as §1

[1] = system: LPS-induced cytokine production; assay: Serum cytokine concentrations in mice treated with TLR and/or complement activators; format: in vivo; details: mice co-treated with LPS and CVF
Method: A set of experiment was conducted to measure serum concentrations of cytokines in mice untreated (NT) or treated with TLR and/or complement activators. […] On the other hand, CVF reduced LPS-induced IL-12 production (FIG. 8). Thus, the effect of CVF on LPS-induced cytokine production is dependent on complement C3 and C5aR but not C3aR signaling.

C5aR [2] = target: T3, C5aR (Mus musculus, UniProt P30993); assay: Synergistic effect of C5a with LPS on serum IL-6 in mice; format: in vivo
T3 construct: from tissue; host or cells: living mice (A4: C57BL/6 DAF-/-; A12: wild-type, with C5aR-/- mice as control)
T3 sequence (P30993 1-351): T2 sequence (P30993 1-351)
Method: (§2) Next, the Synergistic effect of C5a with LPS in augmenting IL-6 production was tested. Instead of using the complement activator CVF, the complement activation product C5a was directly tested for its activity to synergize with LPS in IL-6 production. […] CVF treatment by itself has no effect on IL-6 production. Thus, the synergistic activity of C5a required C5aR as such an effect was not observed in C5aR^−/− mice (FIG. 10).

naive CD4 T cells = assay: Th-17 differentiation of purified naive CD4 T cells (anti-CD3/CD28) with cytokines or mouse sera, FACS; format: cell-based, mice; details: for Th-17 differentiation driven by serum of mice treated with the substance alone: naive CD4 T cells from wild-type mice, plate-bound anti-CD3 and CD28; for Effect of co-treatment on Th-17 differentiation driven by serum of LPS-treated mice: serum of mice co-treated with LPS and the substance; for Th-17 differentiation, cytokine alone: cells treated with the cytokine alone
Text: To test whether the CVF-augmented inflammatory cytokine production promotes Th-17 differentiation, purified naive CD4 T cells from wild-type mice were stimulated in vitro with plate-bound anti-CD3 and CD28 in the presence of specific cytokines or sera of control (naive mouse) or LPS-, CVF-treated mice. […] The augmenting effect of CVF on LPS-dependent Th-17 differentiation required C3 and C5aR but not C3aR.
The ability of C5a-induced augmentation of serum inflammatory cytokine production to promote Th-17 differentiation was assessed. Purified naive CD4 T cells from wild-type mice were stimulated in vitro with plate-bound anti-CD3 and CD28 in the presence of specific cytokines or sera of control (naive mouse) or LPS-, C5a-treated mice. […] Treatment of the cells with IL-6 alone or TGF-β alone had no effect on Th-17 differentiation. […] Thus the augmenting effect of C5a on LPS-dependent Th-17 differentiation required C5aR. These findings indicate that complement activation products, particularly C5a, synergize with the TLR activation pathway to augment inflammatory cytokine production. The complement system, through interaction with TLR, augments Th-17 differentiation and therefore plays a role in autoimmune tissue injury. FIGS. 8-11 provide evidence for this conclusion. Thus, inhibiting complement activation is a therapeutic approach for treating Th-17 T cell mediated autoimmune diseases such as multiple sclerosis, Lupus, inflammatory bowel disease, GvHD and transplant rejection.

[3] = system: C3 activation fragments (C3b/iC3b/C3c); assay: Complement activation assay (sandwich ELISA of plasma C3 activation fragments); format: in vivo; details: plasma samples of CpG-treated mice
Method: Levels of C3 activation fragments (C3b/iC3b/C3c) in plasma were measured by a sandwich ELISA. For quantification purposes, 1/500 serial dilutions of CVF-activated WT mouse plasma (prepared by adding 2.5 μg (1.2 units) of CVF to 50 μl plasma and incubating for 1 h at 37° C.) were used as a reference, and complement activation in all testing samples was normalized to this reference sample.

[4] = Measurement of plasma LPS levels (Pyrochrome Kit) after LPS injection; format: in vivo, mice; details: 3 hours after LPS injection (20 mg/kg i.p.), n=12
Method: as §1
Plasma LPS levels were determined using the Pyrochrome Kit from Associates of CAPE COD Incorporated (East Falmouth, Mass.). Plasma samples were treated at 70° C. for 10 minutes before assays to heat-inactivate serine proteases. Levels were expressed as units/ml of endotoxin.

[5] = system: NF-kB luciferase reporter gene in RAW264.7 cells; assay: NF-kB luciferase reporter gene assay and TNF-α ELISA in transfected RAW 264.7 cells; format: cell-based, murine; details: transfected RAW264.7 cells
Text: RAW 264.7 cells were co-transfected with NF-kB Luc (Clontech, Palo Alto, Calif.), human C5aR in pcDNA3 (UMA cDNA resource center, Rolla, Mo.) and the Rellina control vector (Promega, Madison, Wis.) using the Amaxa Nucleofector apparatus (Amaxa Biosystems, Germany). The RAW 264.7 cells expressed detectible levels of endogenous C5aR as assessed by FACS and RT-PCR. After transfection, they also became weakly positive for human C5aR as assessed by FACS. […] Cell culture supernatants were collected for IL-6 and TNF-α assays by ELISA. All assays were performed in triplicates.

C5aR [6] = assay: Synergistic effect of C5a with LPS on serum IL-6 in mice; format: in vivo; details: C5aR−/− mice
Method: as §2

[7] = wild-type mice, CVF co-treatment with LPS
[8] = wild-type mice, CVF treatment alone

Molecule: NC(N)=NCCC[C@H](NC(=O)COCC(c1ccccc1)c1ccccc1)C(=O)O [SB 290157]
- Effect on the increase in LPS-induced IL-6 production (C3a receptor (C3aR)): significantly (p<0.001) attenuated

Molecule: AcPhe
- Effect on the increase in LPS-induced IL-6 production (C5a receptor (C5aR)): totally blocked

Molecule: Cobra venom factor [CVF]
- Reduction of LPS-induced IL-12p40 by CVF treatment (TLR4 signaling; IL-10−/− mice): 22%
- Plasma IL-10 level (TLR4 signaling; LPS/CVF-treated wild-type mice compared with LPS- or CVF-treated wild-type mice): strikingly elevated
- Effect on LPS-induced plasma IL-6 (TLR4 signaling; [7]): greatly increased
- Effect on LPS-induced plasma IL-12p40 (TLR4 signaling; [7]): decreased
- Effect on IL-6 production (TLR4 signaling; [8]): negligible effect
- Effect on IL-12p40 production (TLR4 signaling; [8]): negligible effect
- Reduction of LPS-induced IL-12p40 by CVF treatment (TLR4 signaling; wild-type mice): 87%
- Effect on zymosan-induced IL-6 production (TLR2/6 signaling): Markedly increased
- Effect on zymosan-induced IL-12p40 production (TLR2/6 signaling): decreased
- Effect on CpG-induced IL-1β production (TLR9): no significant impact
- Effect on CpG-induced TNF-α production (TLR9): no significant impact
- Effect on CpG-induced IL-6 production (TLR9; 3 hours): no significant impact
- Effect on CpG-induced IL-12p40 production (TLR9; 3 hours): markedly suppressed
- Effect on LPS-induced IL-12 production [1]: reduced
- Effect on LPS-induced serum IL-1β [1]: augmented
- Effect on LPS-induced serum IL-6 [1]: augmented
- Effect on LPS-induced serum TNF-α [1]: augmented
- Serum IL-6 level (C5aR [2]; mice co-treated with LPS, compared with LPS alone): greatly elevated
- Effect on IL-6 production (C5aR [2]; treatment by itself, without LPS): no effect
- Th-17 differentiation driven by serum of mice treated with the substance alone (naive CD4 T cells): unable to drive Th-17 differentiation
- Effect of co-treatment on Th-17 differentiation driven by serum of LPS-treated mice (naive CD4 T cells): strongly augmented

Molecule: CpG 1826 (5′-TCCATGACGTFCCTGACGTT-3′)
- Complement activation in plasma [3]: detectable complement activation

Molecule: TGF-β
- Th-17 differentiation, cytokine alone (naive CD4 T cells): no effect

Molecule: lipopolysaccharide [LPS]
- Plasma LPS concentration ([4]; DAF−/− mice): 1200±307 EU/ml
- Plasma LPS concentration ([4]; wild-type mice): 925±413 EU/ml
- Th-17 differentiation driven by serum of mice treated with the substance alone (naive CD4 T cells): active in driving Th-17 differentiation

B1: IL-6: cytokine added to naive CD4 T cell cultures to drive Th-17 differentiation (protein, UniProt P08505 25-211, looked up)
Interleukin-6: FPTSQVRRGDFTEDTTPNRPVYTTSQVGGLITHVLWEIVEMRKELCNGNSDCMNNDDALAENNLKLPEIQRNDGCYQTGYNQEICLLKISSGLLEYHSYLEYMKNNLKDNKKDKARVLQRDTETLIHIFNQEVKDLHKIVLPTPISNALLTDKLESQKEWLRTKTIQFILKSLEEFLKVTLRSTRQT
- Th-17 differentiation in the presence of TGF-β (naive CD4 T cells; IL-6 in the presence of TGF-β): differentiated into Th-17 cells
- Th-17 differentiation, cytokine alone (naive CD4 T cells): no effect

B2: C5a: recombinant human C5a from Sigma-Aldrich; complement activation product, anaphylatoxin (protein, UniProt P01031 678-751, looked up)
C5a anaphylatoxin: TLQKKIEEIAAKYKHSVVKKCCYDGACVNNDETCEQRAARISLGPRCIKAFTECCVVASQLRANISHKDMQLGR
modifications: C5a anaphylatoxin
- Secretion of endogenous TNF-α ([5]; C5a (50 nM) with LPS (1000 ng/ml) per FIG. 4D legend): synergized with LPS
- Secretion of endogenous TNF-α ([5]; C5a alone): negligible effect on its own
- Synergistic effect with LPS on IL-6 production (C5aR [6]): not observed
- Th-17 differentiation driven by serum of mice treated with the substance alone (naive CD4 T cells): unable to drive Th-17 differentiation
- Effect of co-treatment on Th-17 differentiation driven by serum of LPS-treated mice (naive CD4 T cells): strongly augmented
